# Source: patent publication US20230092001A1, “FURANEOL GLYCOSIDE COMPOUND, PHARMACEUTICAL COMPOSITION THEREOF, PREPARATION METHOD THEREFOR, AND APPLICATION THEREOF” (priority 2019, published 2023)
# Columns and labels:
# [1] = test system: ulcerative colitis model (dextran sodium sulphate); test: Effect example 2: therapeutic effect on ulcerative colitis, dextran sodium sulphate model, oral gavage, 14 days; format: in vivo, C57 mice; conditions: for Weight effect compared with the positive control drug SASP (in words): 40 mg/kg oral gavage vs SASP 30 mg/kg oral gavage; for Effect on the reduction of weight in mice (in words): 40 mg/kg oral gavage, vs ulcerative colitis model group; for Average colon length of mice: day 14
# Method: Thirty-five 10-week-old male C57 mice, SPF class animal house, temperature 20-26° C., humidity 40%-70%, alternating light-dark periods (12 h/12 h).
# (§1) Quarantine-qualified animals with similar weights were selected for the experiment.
# Mice in the blank control group were given normal drinking water throughout the experiment. The other 6 groups of mice were given drinking water containing 2% dextran sodium sulphate from day 1 to day 5, normal drinking water from day 6 to day 7, drinking water containing 2% dextran sodium sulphate from day 8 to day 12, and normal drinking water from day 13 to day 14. The experiment ended on day 14. All groups were administered by oral gavage once a day according to table 7, until the end of the experiment on day 14.
# (§2) (1) The mice were weighed daily.
# (2) Blood samples were collected from the orbital vein on day 14 and stored at −80° C.
# (3) On day 14, the mice were sacrificed by cervical vertebra dislocation, the colon was removed and a small amount of fecal was taken from the colon and left as a sample. The colon length and colon weight were measured. A portion of the colon and the fecal sample was stored at −80° C.
# [2] = test system: ulcerative colitis model (dextran sodium sulphate); test: Effect Example 3: therapeutic effect on ulcerative colitis, dextran sodium sulphate model, oral gavage, 7 days; format: in vivo, C57 mice; conditions: 40 mg/kg oral gavage; for Average colon length of mice: day 7
# Method: Fifty 10-week-old male C57 mice, SPF class animal house, temperature 20-26° C., humidity 40%-70%, alternating light-dark periods (12 h/12 h).
# as §1
# Mice in the blank control group were given normal drinking water throughout the experiment. The other 9 groups of mice were given drinking water containing 2% dextran sodium sulphate from day 1 to day 7. All groups were administered by oral gavage once a day according to table 10, until the end of the experiment.
# as §2
# (2) Blood samples were collected from the orbital vein on day 7 and stored at −80° C.
# (3) On day 7, the mice were sacrificed by cervical vertebra dislocation, the colon was removed and a small amount of fecal was taken from the colon and left as a sample. The colon length and colon weight were measured. A portion of the colon and the fecal sample was stored at −80° C.
# [3] = Day 1, treatment group 40 mg/kg oral gavage
# [4] = Day 2, treatment group 40 mg/kg oral gavage
# [5] = Day 3, treatment group 40 mg/kg oral gavage
# [6] = Day 4, treatment group 40 mg/kg oral gavage
# [7] = Day 5, treatment group 40 mg/kg oral gavage
# [8] = Day 6, treatment group 40 mg/kg oral gavage
# [9] = Day 7, treatment group 40 mg/kg oral gavage
# [10] = Day 8, treatment group 40 mg/kg oral gavage
# [11] = Day 9, treatment group 40 mg/kg oral gavage
# [12] = Day 10, treatment group 40 mg/kg oral gavage
# [13] = Day 11, treatment group 40 mg/kg oral gavage
# [14] = Day 12, treatment group 40 mg/kg oral gavage
# [15] = Day 13, treatment group 40 mg/kg oral gavage
# [16] = Day 14, treatment group 40 mg/kg oral gavage
# [17] = treatment group 40 mg/kg oral gavage
Structure (SMILES),Weight effect compared with the positive control drug SASP (in words) [1],Effect on the reduction of weight in mice (in words) [1],"Average weight of mice [1, 3] [g]","Average weight of mice [1, 4] [g]","Average weight of mice [1, 5] [g]","Average weight of mice [1, 6] [g]","Average weight of mice [1, 7] [g]","Average weight of mice [1, 8] [g]","Average weight of mice [1, 9] [g]","Average weight of mice [1, 10] [g]","Average weight of mice [1, 11] [g]","Average weight of mice [1, 12] [g]",Average weight of mice ([2]; Day 1) [g],Average weight of mice ([2]; Day 2) [g],Average weight of mice ([2]; Day 3) [g],Average weight of mice ([2]; Day 4) [g],Average weight of mice ([2]; Day 5) [g],Average weight of mice ([2]; Day 6) [g],Average weight of mice ([2]; Day 7) [g],Average colon length of mice [2] [cm],also measured
"CC(=O)OC[C@H]1O[C@@H](OC2=C(C)OC(=C(C)C)C2=O)[C@H](OC(C)=O)[C@@H](OC(C)=O)[C@H]1OC(C)=O [Compound I-4, 4-O-[(2,3,4,6-tetra-O-acetyl)-β-D-galactosyl]-5-methyl-2-(1-methylethylidene)-3(2H)-furanone]",better than the positive control drug,significant improvement in the reduction of weight in mice,26.72,26.76,26.72,26.72,26.44,26.36,24.82,23.44,23.3,23.3,,,,,,,,,"Average weight of mice [1, 13]: 24.02 g; Average weight of mice [1, 14]: 24.14 g; Average weight of mice [1, 15]: 24.5 g; Average weight of mice [1, 16]: 24.68 g; Average colon length of mice [1, 17]: 6.2 cm"
COC(=O)[C@H]1O[C@@H](OC2=C(C)OC(=C(C)C)C2=O)[C@H](OC(C)=O)[C@@H](OC(C)=O)[C@@H]1OC(C)=O [Compound I-5],better than the positive control drug,significant improvement in the reduction of weight in mice,26.9,26.92,26.88,26.9,26.58,26.32,25.3,23.6,23.24,23.24,,,,,,,,,"Average weight of mice [1, 13]: 24.2 g; Average weight of mice [1, 14]: 24.48 g; Average weight of mice [1, 15]: 24.5 g; Average weight of mice [1, 16]: 24.68 g; Average colon length of mice [1, 17]: 6.0 cm"
CC(C)=C1OC(C)=C(O[C@@H]2O[C@H](COC(=O)C(C)(C)C)[C@@H](OC(=O)C(C)(C)C)[C@H](OC(=O)C(C)(C)C)[C@H]2OC(=O)C(C)(C)C)C1=O [Compound I-6],better than the positive control drug,significant improvement in the reduction of weight in mice,26.9,26.94,26.9,26.9,26.64,26.2,24.52,24.38,24.42,24.42,,,,,,,,,"Average weight of mice [1, 13]: 24.66 g; Average weight of mice [1, 14]: 24.94 g; Average weight of mice [1, 15]: 24.72 g; Average weight of mice [1, 16]: 24.5 g; Average colon length of mice [1, 17]: 5.9 cm"
CCOC(=O)OC[C@H]1O[C@@H](OC2=C(C)OC(=C(C)C)C2=O)[C@H](O)[C@@H](O)[C@@H]1O [Compound I-7],,,,,,,,,,,,,21.47,21.62,21.18,20.82,20.13,20.07,19.88,5.4,
CC(=O)OC[C@H]1O[C@@H](OC2=C(C)OC(=C3CCCC3)C2=O)[C@H](OC(C)=O)[C@@H](OC(C)=O)[C@@H]1OC(C)=O [Compound I-8],,,,,,,,,,,,,21.85,21.97,21.77,21.33,20.62,20.52,20.32,6.1,Effect on the colon length (in words) [2]: can gradually restore the colon length
CC(=O)OC[C@H]1O[C@@H](OC2=C(C)OC(=C3CCCCC3)C2=O)[C@H](OC(C)=O)[C@@H](OC(C)=O)[C@@H]1OC(C)=O [Compound I-9],,,,,,,,,,,,,21.20,21.17,20.92,20.47,20.03,19.42,19.38,6.3,Effect on the colon length (in words) [2]: can gradually restore the colon length
CC(=O)OC[C@H]1O[C@@H](OC2=C(C)OC(=C3CCOCC3)C2=O)[C@H](OC(C)=O)[C@@H](OC(C)=O)[C@@H]1OC(C)=O [Compound I-10],,,,,,,,,,,,,21.95,21.60,21.18,21.27,20.90,20.13,19.25,5.8,
CC(=O)OC[C@H]1O[C@@H](OC2=C(C)OC(=C3CCNCC3)C2=O)[C@H](OC(C)=O)[C@@H](OC(C)=O)[C@@H]1OC(C)=O [Compound I-11],,,,,,,,,,,,,21.62,21.30,21.10,20.97,20.32,19.93,19.30,6.2,Effect on the colon length (in words) [2]: can gradually restore the colon length
CC(=O)OC[C@H]1O[C@@H](OC2=C(C)OC(=C3CCN(C(C)=O)CC3)C2=O)[C@H](OC(C)=O)[C@@H](OC(C)=O)[C@@H]1OC(C)=O [Compound I-12],,,,,,,,,,,,,21.25,21.22,21.13,20.62,20.10,16.32,18.88,5.7,
"O=C(O)c1cc(/N=N/c2ccc(S(=O)(=O)Nc3ccccn3)cc2)ccc1O [SASP, salazosulfapyridine, reference compound]",,,,,,,,,,,,,,,,,,,,,"Average weight of mice ([1]; Day 1, positive control group 30 mg/kg oral gavage): 26.8 g; Average weight of mice ([1]; Day 2, positive control group 30 mg/kg oral gavage): 26.86 g; Average weight of mice ([1]; Day 3, positive control group 30 mg/kg oral gavage): 26.82 g; Average weight of mice ([1]; Day 4, positive control group 30 mg/kg oral gavage): 26.8 g; Average weight of mice ([1]; Day 5, positive control group 30 mg/kg oral gavage): 26.52 g; Average weight of mice ([1]; Day 6, positive control group 30 mg/kg oral gavage): 25.74 g; Average weight of mice ([1]; Day 7, positive control group 30 mg/kg oral gavage): 24.38 g; Average weight of mice ([1]; Day 8, positive control group 30 mg/kg oral gavage): 22.92 g; Average weight of mice ([1]; Day 9, positive control group 30 mg/kg oral gavage): 22.3 g; Average weight of mice ([1]; Day 10, positive control group 30 mg/kg oral gavage): 22.34 g; Average weight of mice ([1]; Day 11, positive control group 30 mg/kg oral gavage): 22.68 g; Average weight of mice ([1]; Day 12, positive control group 30 mg/kg oral gavage): 23.14 g; Average weight of mice ([1]; Day 13, positive control group 30 mg/kg oral gavage): 23.52 g; Average weight of mice ([1]; Day 14, positive control group 30 mg/kg oral gavage): 23.52 g; Average colon length of mice ([1]; positive control group 30 mg/kg oral gavage): 6.0 cm"
